The record followed here is patent publication US20080107609A1, “PULMONARY DISEASE TREATMENT” (Schering Corporation, priority 2003, published 2008).

Experiment [1] deals with patients suffering from chronic obstructive pulmonary disease. In words: Example 1: randomized double-blind clinical trial of orally inhaled mometasone furoate vs placebo, FEV1 after salbutamol. Particulars: for ΔFEV1: dry powder inhaler, COPD patients previously on inhaled corticosteroid, average change from study start, post-salbutamol. The class given is in vivo, human. The protocol:
A randomized, double-blind crossover clinical trial was conducted to compare the effects of orally inhaled mometasone furoate and a placebo, in patients suffering from chronic obstructive pulmonary disease. The drug was delivered from a multiple-dose dry powder inhaler charged with a mixture of mometasone furoate and lactose (having a component weight ratio of 1:5.8) in an agglomerated form. Placebo inhaler units contained only the lactose powder. The drug-containing inhalers delivered the following mean amounts of mometasone furoate particles per inhalation, as measured using an Anderson Cascade Impactor (from Thermo Anderson, Smyrna, Ga. U.S.A.) at an air flow rate through the inhaler of 60 L/minute:
Evaluable patients participating in the study numbered 578, all having been diagnosed with COPD of moderate severity, being at least 40 years of age, and also being maintained for at least three months prior to commencement of the study on daily inhalations of a corticosteroid drug (even though there was no regulatory agency-approved COPD therapy using an inhaled corticosteriod). […] The patients were enrolled at a total of 35 sites in 24 countries, and were prescribed two inhalations from the supplied inhaler device each evening for a twelve-month period, with evaluations by a physician after 1, 3, 6, 9, and 12 months of participation. A total of 294 of the patients were randomized to receive inhalers containing the drug, while 284 patients received placebo inhalers. All of the patients were permitted to further use inhaled salbutamol as needed.
Results of the study were as follows, where the ΔFEV1 value represents the average of differences between the patients' FEV1 scores at the beginning of the study and the FEV1 scores at the time of the subsequent measurement, with all of the FEV1 testing being performed after administration of inhaled salbutamol. For each time point, the number of patients remaining in the study is given.
From a statistical analysis of the data, it was determined that the mean change from baseline over the twelve-month period was an increase in ΔFEV1 of 4 mL for patients receiving the mometasone furoate, and a decrease of 36 mL for placebo patients.

The test system is the same in experiment [2]. In words: Example 2: randomized double-blind parallel-group clinical trial of orally inhaled mometasone furoate vs placebo, FEV1 after salbutamol. To be noted: for ΔFEV1: corticosteroid-naive COPD patients, post-salbutamol; for mean change from baseline in ΔFEV1 over the twelve-month period: statistical analysis, increase. The class given is in vivo, human. The protocol: A randomized double-blind, parallel-group clinical trial was conducted to compare the effects of orally inhaled mometasone furoate and a placebo, in patients suffering from chronic obstructive pulmonary disease. The multiple dose dry powder inhaler and placebo inhaler described in the preceding example were used for this study. A total of 769 patients met the criteria for evaluability, from 95 sites in 11 countries. The patients had not previously been treated with corticosteroids, either inhaled or orally dosed, but otherwise met the criteria of the preceding example. In the study, patients were prescribed either two inhalations from the inhaler each evening, or one inhalation each morning and one inhalation each evening, with a twelve-month treatment duration. Results of the study were as follows, where the ΔFEV1 value represents the average of differences between the patients' FEV1 scores at the beginning of the study and the FEV1 scores at the time of the subsequent measurement, with all of the FEV1 testing being performed after administration of inhaled salbutamol. For each time point, the number of patients remaining in the study is given.

On to `C[C@@H]1C[C@H]2[C@@H]3CCC4=CC(=O)C=C[C@]4(C)[C@@]3(Cl)[C@@H](O)C[C@]2(C)[C@@]1(OC(=O)c1ccco1)C(=O)CCl` [mometasone furoate, 9α,21-Dichloro-11β,17-dihydroxy-16α-methylpregna-1,4-diene-3,20-dione 17-(2-furoate)], for which the “ΔFEV1” value was 5 mL in experiment [1] (1 month, two inhalations each evening); 9 mL in experiment [1] (3 months, two inhalations each evening); -2 mL in experiment [1] (6 months, two inhalations each evening); 22 mL in experiment [1] (9 months, two inhalations each evening); 7 mL in experiment [1] (12 months, two inhalations each evening); 66 mL in experiment [2] (Once Daily (two inhalations each evening), 1 month). In addition, the “ΔFEV1” value is 57 mL in experiment [2] (Once Daily (two inhalations each evening), 3 months); 44 mL in experiment [2] (Once Daily (two inhalations each evening), 6 months); 37 mL in experiment [2] (Once Daily (two inhalations each evening), 9 months); 38 mL in experiment [2] (Once Daily (two inhalations each evening), 12 months); 72 mL in experiment [2] (Twice Daily (one inhalation each morning and one each evening), 1 month); 79 mL in experiment [2] (Twice Daily (one inhalation each morning and one each evening), 3 months). Further, the “ΔFEV1” value stood at 36 mL in experiment [2] (Twice Daily (one inhalation each morning and one each evening), 6 months); 58 mL in experiment [2] (Twice Daily (one inhalation each morning and one each evening), 9 months); 31 mL in experiment [2] (Twice Daily (one inhalation each morning and one each evening), 12 months). Besides, the “difference between treatments (drug vs placebo) in mean ΔFEV1 change” value in experiment [1] (longitudinal analysis of variance model, twelve-month period) is “statistically significant”. The “mean change from baseline in ΔFEV1 over the twelve-month period” value is 4 mL in experiment [1] (statistical analysis (longitudinal analysis of variance), two inhalations each evening, increase); 50 mL in experiment [2] (dosed once daily); 53 mL in experiment [2] (dosed twice daily). In experiment [1] (twelve months, two inhalations each evening), the “pulmonary function over the trial period (FIG. 1)” value was “generally maintained or slightly improved their pulmonary function”. The “pulmonary function over the trial period (FIG. 2)” value in experiment [2] (twelve months, once daily and twice daily) is “generally improved their pulmonary function”. The “comparison of both mometasone furoate treatments (once and twice daily) with placebo” value in experiment [2] (twelve-month period, ΔFEV1) is “statistically significantly superior to the placebo treatment”.
